Data set [1] is described as follows: Cell viability assay (CellTiter-Glo) in HEp-2 cells. Type of data set: cell-based. Conditions: human. The protocol: (§1) Figure 7. MMP-9-mediated TGM2 cleavage potentiates RSV–host interaction. (A) Cytotoxicity profiling. Dose-response curves of TGM2 inhibitors (ZED-1227, Cystamine, Bacitracin, E64FC26, ML359) in HEp-2 cells (72 h treatment). Viability was assessed by CellTiter-Glo assay. Data normalized to untreated controls. mean ± SD, n = 3. (B) Antiviral efficacy. Viral inhibition (FFA) in RSV A2-infected HEp-2 cells treated with TGM2 inhibitors at threefold dilution gradients: ZED-1227 (60–10 µmol/L), Cystamine (200–22.2 µmol/L), Bacitracin (500–50 µmol/L), E64FC26 (0.2–0.05 µmol/L), and ML359 (10–1.1 µmol/L). DMSO as vehicle control. mean ± SD, n = 3. (C) TGM2–F protein interaction. Co-IP analysis in HEK293T cells co-expressing TGM2 and RSV F (48 h). Immunoblots were probed with anti-TGM2, anti-F, or IgG control. Blots represent three independent experiments. (D) Binding kinetics. BLI quantification of TGM2–DS-Cav1 (RSV F prefusion conformation) interaction. The results represent three biological replicates. (E) Ternary complex formation. Co-IP of MMP-9-TGM2-F complex in HEK293T cells (48 h). GAPDH as loading control. Below the asterisk represents the objective band. Blots represent three independent experiments. (F) Impairing MMP-9/TGM2/RSV-F complex inhibits RSV infection. […] (G) Proteolytic enhancement. MMP-9-cleaved TGM2 (TGM2-44) enhances protein disulfide isomerase (PDI) activity was measured using reduced DS-Cav1. mean ± SD, n = 3. (H) Truncation functional analysis. Viral titers (FFA) in HEp-2 cells expressing MMP-9, TGM2, or cleavage fragments (TGM2-44/41) post RSV infection (MOI = 1, 72 hpi). mean ± SD, n = 3. (I) Syncytium rescue. Syncytia area quantification in TGM2 truncation-expressing cells (ImageJ software). mean ± SD, n = 3. (J) Subcellular redistribution. Confocal microscopy of HEp-2 cells co-expressing TGM2 truncations (HA/FLAG-tagged) and RSV F (72 hpi). Scale bar: 10 µm. Images represent three biological replicates. (K) F protein expression. Fluorescence intensity quantification of RSV F in (J) (ImageJ software). mean ± SD, n = 3. (L) Fusion competence assay. Syncytium formation in HEK293T cells co-expressing TGM2 truncations and RSV F/F-C37S/C69S mutants (48 h). Scale bar: 10 µm. Images represent three biological replicates. (M) Mutant validation. RSV F expression levels in (L) were quantified by ImageJ software. mean ± SD, n = 3. The results are representatively shown with three random experiments. The error bars indicate the mean ± SD of three technical replicates (n = 3). […]
(§2) (B-C) Cytotoxicity profiles in HEp-2 (B) and HBEC (C) cells. […] Viability was assessed using the CellTiter-Glo assay (G7570, Promega). […]
(§3) 95 Cell viability was evaluated using a CellTiter -Glo® Luminescent Cell Viability Assay 96 kit (G7571, Promega) according to the manufacturer’s instructions. […]
(ATP-based viability assays read luminescence as a measure of living cells.)

Data set [2] concerns RSV A2. The data set can be described thus: Viral inhibition (FFA) in RSV A2-infected HEp-2 cells treated with TGM2 inhibitors. Type of data set: cell-based, Respiratory syncytial virus. Conditions: HEp-2, RSV A2; ZED-1227 60–10, Cystamine 200–22.2, Bacitracin 500–50, E64FC26 0.2–0.05, ML359 10–1.1 µmol/L. As for the experimental part:
Figure 7. MMP-9-mediated TGM2 cleavage potentiates RSV–host interaction. (A) Cytotoxicity profiling. Dose-response curves of TGM2 inhibitors (ZED-1227, Cystamine, Bacitracin, E64FC26, ML359) in HEp-2 cells (72 h treatment). Viability was assessed by CellTiter-Glo assay. Data normalized to untreated controls. mean ± SD, n = 3. (B) Antiviral efficacy. Viral inhibition (FFA) in RSV A2-infected HEp-2 cells treated with TGM2 inhibitors at threefold dilution gradients: ZED-1227 (60–10 µmol/L), Cystamine (200–22.2 µmol/L), Bacitracin (500–50 µmol/L), E64FC26 (0.2–0.05 µmol/L), and ML359 (10–1.1 µmol/L). DMSO as vehicle control. mean ± SD, n = 3. (C) TGM2–F protein interaction. Co-IP analysis in HEK293T cells co-expressing TGM2 and RSV F (48 h). Immunoblots were probed with anti-TGM2, anti-F, or IgG control. Blots represent three independent experiments. (D) Binding kinetics. BLI quantification of TGM2–DS-Cav1 (RSV F prefusion conformation) interaction. The results represent three biological replicates. (E) Ternary complex formation. Co-IP of MMP-9-TGM2-F complex in HEK293T cells (48 h). GAPDH as loading control. Below the asterisk represents the objective band. Blots represent three independent experiments. (F) Impairing MMP-9/TGM2/RSV-F complex inhibits RSV infection. […] (G) Proteolytic enhancement. MMP-9-cleaved TGM2 (TGM2-44) enhances protein disulfide isomerase (PDI) activity was measured using reduced DS-Cav1. mean ± SD, n = 3. (H) Truncation functional analysis. Viral titers (FFA) in HEp-2 cells expressing MMP-9, TGM2, or cleavage fragments (TGM2-44/41) post RSV infection (MOI = 1, 72 hpi). mean ± SD, n = 3. (I) Syncytium rescue. Syncytia area quantification in TGM2 truncation-expressing cells (ImageJ software). mean ± SD, n = 3. (J) Subcellular redistribution. Confocal microscopy of HEp-2 cells co-expressing TGM2 truncations (HA/FLAG-tagged) and RSV F (72 hpi). Scale bar: 10 µm. Images represent three biological replicates. (K) F protein expression. Fluorescence intensity quantification of RSV F in (J) (ImageJ software). mean ± SD, n = 3. (L) Fusion competence assay. Syncytium formation in HEK293T cells co-expressing TGM2 truncations and RSV F/F-C37S/C69S mutants (48 h). Scale bar: 10 µm. Images represent three biological replicates. (M) Mutant validation. RSV F expression levels in (L) were quantified by ImageJ software. mean ± SD, n = 3. The results are representatively shown with three random experiments. The error bars indicate the mean ± SD of three technical replicates (n = 3). Statistical analysis: one-way ANOVA with Dunnett’s post hoc test (B, F, G, H, I, K, M); unpaired two-tailed Student’s t-test (F, H, I, K, M). *P < 0.05, **P < 0.01, ***P < 0.001; ns, not significant.

Data set [3] deals with RSV A2. The data set can be described thus: Antiviral activity (FFA) against RSV A2 in HEp-2 cells. Type of data set: cell-based. Conditions: human respiratory syncytial virus. The text has this:
(§4) Figure 1. Antiviral activity of metalloproteinase inhibitors against RSV in vitro. (A) Experimental workflow for RSV A2 infection and compound treatment. (B) High-throughput screening of TargetMol L1100 library (246 host protease inhibitors targeting 10 pathways: MMPs, caspases, proteasomes, apoptosis regulators, cysteine proteases, gamma-secretase, autophagy modulators, serine proteases, DPP-4, and beta-secretase) using concentration gradients (1, 5, 10 µmol/L). HEp-2 cells were pretreated with compounds for 1 hour prior to RSV A2 infection (MOI = 0.1). Plaque formation was quantified at 72 hours post-infection (hpi) and normalized to DMSO controls. […] (G) Target overlap analysis of four MMP-9-targeting inhibitors. (H) Viral titers in supernatants of HEp-2 cells transfected with MMP-specific siRNAs (24 h) followed by RSV A2 infection (MOI = 1, 72 h). mean ± SD, n = 3. The results are representatively shown with three random experiments. The error bars indicate the mean ± SD of three technical replicates (n = 3). Statistical significance was determined by one-way ANOVA with Dunnett’s post hoc test: *P < 0.05, ***P < 0.001; ns, not significant. […]
(§5) 110 overtly cytotoxic) underwent dose -response validation (0.00004 –10 μM) to generate
(§6) 111 EC50 curves (GraphPad Prism 8.0) .
(§7) 112 Evaluation of in vitro antiviral activity
(§8) 113 Compound inhibitor treatments: HEp-2 cells (1.3×10⁴/well) or HBEC (1.8×10⁴/well)
(§9) 114 were pretreated with test compounds for 1 h before RSV A2/B18537 infection
(§10) 115 (MOI=0.1 or 0.3). Viral inhibition was quantified at 72 hpi via FFA. Fixed cells (4%
(§11) 116 PFA) were permeabilized (0.3% Triton X-100), stained with anti-RSV-FITC
(§12) 118 Fluorescent foci were normalized to nuclear counts (ImageJ software) for EC 50
(§13) 119 determination via four-parameter logistic regression (GraphPad Prism 8.0). Data
(§14) 120 represent triplicate experiments. […]

The test system of data set [4] is RSV A2. The data set can be described thus: Antiviral activity (FFA) against RSV A2 in primary human bronchial epithelial cells (HBEC). Conditions: human respiratory syncytial virus, Epithelial cell. Type of data set: cell-based.
From the text: as §4, §7, §8, §9, §10, §11, §12, §13, §14

For data set [5], the system named is RSV B18537. Nature of the data set: Antiviral activity (FFA) against RSV B18537 in HBEC. The format is cell-based. To be noted: human respiratory syncytial virus.
From the text: as §4, §7, §8, §9, §10, §11, §12, §13, §14

In data set [6] the test system is RSV A2. Nature of the data set: High-throughput antiviral screening of protease inhibitor library against RSV A2 in HEp-2 cells. Type of data set: cell-based, Respiratory syncytial virus. To be noted: RSV A2, MOI = 0.1, 1, 5, 10 µmol/L, 72 hpi.
From the text: Figure 1. Antiviral activity of metalloproteinase inhibitors against RSV in vitro. (A) Experimental workflow for RSV A2 infection and compound treatment. (B) High-throughput screening of TargetMol L1100 library (246 host protease inhibitors targeting 10 pathways: MMPs, caspases, proteasomes, apoptosis regulators, cysteine proteases, gamma-secretase, autophagy modulators, serine proteases, DPP-4, and beta-secretase) using concentration gradients (1, 5, 10 µmol/L). HEp-2 cells were pretreated with compounds for 1 hour prior to RSV A2 infection (MOI = 0.1). Plaque formation was quantified at 72 hours post-infection (hpi) and normalized to DMSO controls. […] (G) Target overlap analysis of four MMP-9-targeting inhibitors. (H) Viral titers in supernatants of HEp-2 cells transfected with MMP-specific siRNAs (24 h) followed by RSV A2 infection (MOI = 1, 72 h). mean ± SD, n = 3. The results are representatively shown with three random experiments. The error bars indicate the mean ± SD of three technical replicates (n = 3). Statistical significance was determined by one-way ANOVA with Dunnett’s post hoc test: *P < 0.05, ***P < 0.001; ns, not significant.
104 High-throughput antiviral screening
105 The L1100 protease inhibitor library (246 compounds; L1100, TargetMol) was
106 screened against RSV A2 in HEp -2 cells. Compounds (10 mM DMSO stocks) were
107 robotically dispensed 1 h pre -infection at final concentrations of 1, 5, 10 μM.
108 Infection rates (72 hpi) were normalized to PC786 (1 μM; positive control; HY -
(§15) 109 111813, MCE) and 0.1% DMSO vehicle. Primary hits (>50% CPE reduction + not
as §5, §6, §7, §8, §9, §10, §11, §12, §13, §14

Data set [7] relates to RSV B18537. Nature of the data set: Antiviral activity (FFA) against RSV B18537 in HEp-2 cells. To be noted: human respiratory syncytial virus. The format is cell-based.
From the text: as §4, §15, §5, §6, §7, §8, §9, §10, §11, §12, §13, §14

In a further data set the test system is HEp-2 cells. Nature of the data set: Cell viability assay (CellTiter-Glo) in HEp-2 cells. The format is cell-based. The protocol: as §1, §2, §3

Regarding `NCCSSCCN` [Cystamine], the CC50 at 72 h in data set [1] is 387 µM. In addition, the “inhibition of RSV replication (antiviral efficacy)” value in the data set on RSV A2 [2] is “did not inhibit RSV replication”.
Turning to `C[C@H]1c2cccc(O)c2C(=O)C2=C(O)[C@]3(O)C(=O)C(C(N)=O)=C(O)[C@@H](N(C)C)[C@@H]3[C@@H](O)[C@@H]21` [Doxycycline], the EC50 in the data set on RSV A2 [3] (HEp-2, RSV A2, MOI = 0.1, 72 hpi, read-out: EC50) turned out to be 0.846 µM; in the data set on RSV A2 [4] (HBEC, RSV A2, MOI = 0.3, 72 hpi, read-out: EC50), 1.3 µM; with RSV B18537 [5] (HBEC, RSV B18537, MOI = 0.3, 72 hpi, read-out: EC50), 0.811 µM; with RSV B18537 [7] (HEp-2, RSV B18537, MOI = 0.1, 72 hpi, read-out: EC50), 0.727 µM. Further, the “inhibition of RSV infection in HEp-2 cells” value in the data set on RSV A2 [6] is reported as “significant dose-dependent inhibition”.
On to `CCCCCCCC/C=C1\C=C(C(F)(F)F)c2cc(O)c(O)cc21` [E64FC26], for which, in the data set with HEp-2 cells, the CC50 was 0.8 µM. Further, the “inhibition of RSV replication (antiviral efficacy)” value in the data set on RSV A2 [2] was “strong antiviral efficacy”.
`CC(C)=CCc1c(O)c(CC=C(C)C)c2oc3c(O)ccc(O)c3c(=O)c2c1O` [Gartanin]: the EC50 turned out to be 0.726 µM with RSV A2 [3] (HEp-2), 0.625 µM in the data set with RSV A2 [4], 0.733 µM in the data set with RSV B18537 [5] and 0.738 µM in the data set with RSV B18537 [7] (HEp-2). Also, the “inhibition of RSV infection in HEp-2 cells” value in the data set with RSV A2 [6] was “significant dose-dependent inhibition”.

Usually CC50 stands for the concentration that lowers cell viability or growth by half. In general, EC50 refers to the concentration that produces a half-maximal response.

Values taken from publication PMC12888920, “MMP-9 regulates disulphide isomerase activity of TGM2 to enhance fusion glycoprotein-mediated syncytium formation of respiratory syncytial virus” (Protein & Cell, 2025).
